From US11981669B2, “1,7-naphthyridine derivative and preparation method and use therefor” (CSPC ZHONGQI PHARMACEUTICAL TECHNOLOGY (SHIJIAZHUANG) CO., …, priority 2018, dated 2024)

What was measured:
HIF-2α = test: Expression of HIF-2α protein in Hep3B cells (western blot, grayscale analysis); format: cell-based, Human; settings: for fold induction at 30 µM: Homo sapiens, read-out: HIF-2α level of the compound of the present disclosure/HIF-2α level of blank control
Experimental: (§1) A test compound was dissolved in dimethyl sulfoxide into a 100 mM stock solution, and then was diluted with 0.5% FBS-containing DMEM medium into 30 μM, 10 μM and 3 μM for later use. Human liver cancer cells Hep3B were seeded in a six-well plate at a density of 2.25*10^5 cells/well, 2 mL per well. After cultivation overnight, the cells were treated with compounds at different concentrations for 2 h. The proteins were extracted for western blot and further grayscale analysis.

HIF-1α = test: Expression of HIF-1α protein in Hep3B cells (western blot, grayscale analysis); format: cell-based, Human; settings: for fold induction at 30 µM: Homo sapiens, read-out: HIF-1α level of the compound of the present disclosure/HIF-1α level of blank control
Experimental: as §1

erythropoietin = test: Expression of erythropoietin in vivo (plasma EPO ELISA after single oral dose); settings: once; for EPO OD value: plasma 6 hours after administration; for Promotion of expression of erythropoietin in vivo: at 10 mg/kg;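 on all read-outs here: male C57 mice given compound by mouth, five animals per treatment group, with EPO in plasma measured by ELISA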
Experimental: (2) 30 c57 mice, male, were divided into 6 groups, 5 mice in each treatment group. […] 6 hours after the administration, blood was taken, and plasma was collected for EPO detection with an ELISA kit (R&D Co.).

[1] = system: Erythropoietin in liver cancer cells Hep3B; test: Expression of erythropoietin in liver cancer cells Hep3B in vitro (EPO ELISA of supernatant); format: cell-based, Human
Experimental: The cells were adherent cultured overnight, and after discarding the used medium. In the 96-well culture plate, the cells were washed once with 0.5% FBS-containing DMEM medium. […] 0.5% FBS-containing DMEM medium was used instead of the drug solution as the control well. After incubation in a 37° C., 5% CO2 incubator for 24 h, the supernatant was taken as a sample and frozen at −20° C. for later use. An Elisa kit (abeam) was used to detect EPO in the cell supernatant. A microplate reader was used to detect the OD value at 450/620 nm.

PHD3 = PHD3 (Homo sapiens (Human), UniProt Q9H6Z9); test: PHD enzyme assay (Eu-VBC TR-fluorescence); format: biochemical
Chain of PHD3 (Q9H6Z9 whole entry): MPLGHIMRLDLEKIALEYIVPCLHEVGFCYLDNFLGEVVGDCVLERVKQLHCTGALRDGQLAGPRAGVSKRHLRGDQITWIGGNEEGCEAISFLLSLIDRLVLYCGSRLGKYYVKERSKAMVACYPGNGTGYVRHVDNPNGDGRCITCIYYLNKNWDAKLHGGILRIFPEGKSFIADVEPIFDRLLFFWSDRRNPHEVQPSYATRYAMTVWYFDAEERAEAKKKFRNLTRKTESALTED
Experimental: (§2) VHL/elongin B/elongin C were constructed, expressed and purified, and VHL was labeled. PHD1, PHD2 and PHD3 were constructed, expressed and purified. VBC protein was labeled with DELFIA Eu-Labeling Kit. A NeutrAvidin 96-well plate was blocked after the addition of 200 μL Blocker Casein to each well, followed by incubation for 30 min. Each well was washed 3 times by adding 200 μL of washing buffer each time. A 200 nM HIF-1a 556-574 solution was prepared with washing buffer, and 100 μL of the solution was added to each well, followed by incubation for 60 min. Each well was washed 3 times by adding 200 μL of washing buffer each time. A 1 mM Biotin solution was prepared with Blocker Casein, and 100 μL of the solution was added to each well, followed by incubation for 30 min. Each well was washed 3 times by adding 200 μL of washing buffer each time. A 20× compound solution was prepared with PHD reaction buffer, with the final concentration of DMSO being 1%. PHD solutions were prepared with PHD reaction buffer, and the concentrations of PHD1, 2, and 3 solutions were 10 ng/μL, 5 ng/μL, and 15 ng/μL, respectively. 95 μL of the PHD solution was added to each compound well, followed by the addition of 5 μL of the compound solution, 95 μL of the PHD solution was added to each full active well, followed by the addition of 5 μL of the PHD reaction buffer; and 100 μL of the PHD reaction buffer was added to each blank well. After mixing homogeneously, the wells were incubated for 60 min. Each well was washed 3 times by adding 200 μL of washing buffer each time A 1 ng/μL Eu-VBC solution was prepared with Eu-VBC binding buffer, and 100 μL of the solution was added to each well, followed by incubation for 60 min. Each well was washed 6 times by adding 200 μL DELFIA Wash Concentrate each time. 100 μL DELFIA Enhancement Solution was added to each well. A microplate reader was used to read TR-Fluorescence at Ex340 and Em615. The flurescence of the sample wells was recorded as FLUsample, the flurescence of the full active wells was recorded as FLU100%, and the flurescence of the blank well was recorded as FLU0%.

PHD1 = PHD1 (Homo sapiens (Human), UniProt Q96KS0); test: PHD enzyme assay (Eu-VBC TR-fluorescence); format: biochemical
Chain of PHD1 (Q96KS0 whole entry): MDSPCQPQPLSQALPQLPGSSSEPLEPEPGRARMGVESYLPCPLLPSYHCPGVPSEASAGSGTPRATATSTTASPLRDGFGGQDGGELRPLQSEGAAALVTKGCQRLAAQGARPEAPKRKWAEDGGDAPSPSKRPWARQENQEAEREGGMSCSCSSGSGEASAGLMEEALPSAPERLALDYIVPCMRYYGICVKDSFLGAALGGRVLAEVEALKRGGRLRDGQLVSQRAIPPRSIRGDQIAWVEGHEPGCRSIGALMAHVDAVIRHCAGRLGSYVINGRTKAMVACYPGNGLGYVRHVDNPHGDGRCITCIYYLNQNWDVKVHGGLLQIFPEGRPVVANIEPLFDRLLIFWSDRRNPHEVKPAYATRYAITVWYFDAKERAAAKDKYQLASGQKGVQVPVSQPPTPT
Experimental: as §2

CYP1A2 = CYP1A2 (Homo sapiens (Human), UniProt P05177); format: in vitro ADME
Chain of CYP1A2 (P05177 whole entry): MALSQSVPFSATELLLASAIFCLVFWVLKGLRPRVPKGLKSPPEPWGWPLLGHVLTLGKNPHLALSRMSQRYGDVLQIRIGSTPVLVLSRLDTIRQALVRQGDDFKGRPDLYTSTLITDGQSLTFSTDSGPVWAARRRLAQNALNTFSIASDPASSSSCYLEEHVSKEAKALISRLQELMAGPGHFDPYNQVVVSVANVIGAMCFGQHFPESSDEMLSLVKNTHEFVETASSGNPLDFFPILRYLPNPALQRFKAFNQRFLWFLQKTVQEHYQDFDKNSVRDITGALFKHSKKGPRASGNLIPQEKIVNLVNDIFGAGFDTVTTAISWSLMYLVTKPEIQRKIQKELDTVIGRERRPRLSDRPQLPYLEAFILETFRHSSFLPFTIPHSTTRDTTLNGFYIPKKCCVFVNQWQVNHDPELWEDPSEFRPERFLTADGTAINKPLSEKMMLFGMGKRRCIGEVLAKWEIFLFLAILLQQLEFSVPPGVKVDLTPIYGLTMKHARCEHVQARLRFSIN
Description: (§3) The compounds of the present disclosure were subjected to the CYP450 enzyme inhibition assay.

hERG channels = hERG channels (Homo sapiens (Human), UniProt Q12809); test: cell-based; format: cell-based; settings: for Inhibitory effect on hERG current at the highest test concentration: human, 30 μM
Chain of hERG channels (Q12809 whole entry, the tested form may be a part): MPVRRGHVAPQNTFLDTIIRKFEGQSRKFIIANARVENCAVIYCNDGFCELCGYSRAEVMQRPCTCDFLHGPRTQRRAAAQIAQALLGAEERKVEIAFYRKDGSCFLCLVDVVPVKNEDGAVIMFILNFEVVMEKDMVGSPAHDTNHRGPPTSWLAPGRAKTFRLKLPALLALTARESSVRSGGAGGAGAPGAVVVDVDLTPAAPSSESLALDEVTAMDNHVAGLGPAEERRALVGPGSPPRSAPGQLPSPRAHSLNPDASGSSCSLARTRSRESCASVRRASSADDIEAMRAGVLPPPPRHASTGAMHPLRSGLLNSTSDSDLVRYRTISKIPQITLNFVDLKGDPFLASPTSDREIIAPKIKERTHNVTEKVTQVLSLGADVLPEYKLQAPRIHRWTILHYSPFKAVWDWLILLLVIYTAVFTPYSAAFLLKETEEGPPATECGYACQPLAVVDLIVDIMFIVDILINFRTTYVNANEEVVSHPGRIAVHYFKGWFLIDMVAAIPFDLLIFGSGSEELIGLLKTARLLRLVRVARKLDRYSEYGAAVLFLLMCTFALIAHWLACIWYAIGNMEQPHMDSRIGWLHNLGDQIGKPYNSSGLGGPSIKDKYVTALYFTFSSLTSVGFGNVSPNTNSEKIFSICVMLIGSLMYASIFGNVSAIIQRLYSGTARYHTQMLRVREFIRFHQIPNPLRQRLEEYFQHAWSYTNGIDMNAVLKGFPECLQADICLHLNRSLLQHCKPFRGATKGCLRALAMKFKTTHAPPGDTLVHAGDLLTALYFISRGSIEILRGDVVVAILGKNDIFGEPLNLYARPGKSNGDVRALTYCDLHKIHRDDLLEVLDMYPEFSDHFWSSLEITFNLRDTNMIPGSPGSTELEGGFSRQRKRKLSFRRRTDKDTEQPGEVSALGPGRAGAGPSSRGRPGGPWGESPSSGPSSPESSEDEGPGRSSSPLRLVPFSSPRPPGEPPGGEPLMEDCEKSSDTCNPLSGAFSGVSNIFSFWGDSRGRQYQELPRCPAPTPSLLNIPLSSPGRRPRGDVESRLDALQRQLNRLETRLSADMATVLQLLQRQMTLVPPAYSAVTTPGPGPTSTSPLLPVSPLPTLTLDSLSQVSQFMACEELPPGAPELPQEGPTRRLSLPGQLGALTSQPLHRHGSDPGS
Experimental: Whole-cell patch clamp technique was used to record hERG current. A cell suspension was added to a 35 mm Petri dish, and the dish was then placed on an inverted microscope stage. After the adherence of cells, they were perfused with extracellular fluid at a flow rate of 1-2 mL/min. A glass microelectrode was drawn by a microelectrode puller in two steps, and the pipette tip resistance was between 2-5 MΩ. After establishing the whole cell recording, the clamp potential was held at −80 mV, followed by depolarization to +60 mV when given voltage stimulation and then repolarization to −50 mV to elicit hERG tail current. All recordings were performed after the current was stable. Extracellular perfusion administration started from a low concentration, staying for 5-10 min at each concentration until the current was stable, and then cells were further perfused with the next concentration.

reticulocytes = test: Effect on reticulocytes of normal mice; format: in vivo, Balb/c mice; parameters: Reticulocytes (RETIC), average: unit not given here; settings: 10 mg/kg p.o., once; 72 h after administration
Experimental: 72 Balb/c mice, male, were divided into 12 groups, 6 mice in each treatment group. In the positive drug control groups: the mice in the FG-4592 treatment groups were orally administered once, at two doses of 10 mg/kg and 50 mg/kg, and the mice in the rhEPO treatment group was intraperitoneaily injected once, at a dose of 100 IU/kg. The compounds of the present disclosure were all orally administered once at a dose of 10 mg/kg. 72 h after the administration, blood was collected from the orbit of all animals, and subjected to EDTA-K2 anticoagulation. Then reticulocytes (RETIC) were counted with an automatic blood cell analyzer.

CYP3A4-M = CYP3A4-M (Homo sapiens (Human), UniProt P08684); test: CYP enzyme inhibition assay; format: in vitro ADME
Chain of CYP3A4-M (P08684 whole entry): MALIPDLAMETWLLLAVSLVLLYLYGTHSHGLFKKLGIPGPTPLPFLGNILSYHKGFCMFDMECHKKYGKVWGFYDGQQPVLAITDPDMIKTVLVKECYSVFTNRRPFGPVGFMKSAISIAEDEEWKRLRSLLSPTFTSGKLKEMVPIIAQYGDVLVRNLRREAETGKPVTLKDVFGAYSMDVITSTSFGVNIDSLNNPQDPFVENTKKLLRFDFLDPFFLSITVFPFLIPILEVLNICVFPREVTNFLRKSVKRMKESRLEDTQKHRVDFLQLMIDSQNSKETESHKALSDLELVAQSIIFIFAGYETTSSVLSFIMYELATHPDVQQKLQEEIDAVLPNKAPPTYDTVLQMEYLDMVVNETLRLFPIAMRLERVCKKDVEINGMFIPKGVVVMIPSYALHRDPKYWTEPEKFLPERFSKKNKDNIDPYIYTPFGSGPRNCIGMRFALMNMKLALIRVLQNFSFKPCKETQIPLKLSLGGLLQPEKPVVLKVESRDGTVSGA
Description: as §3

CYP2C19 = CYP2C19 (Homo sapiens (Human), UniProt P33261); test: CYP enzyme inhibition assay; format: in vitro ADME
Chain of CYP2C19 (P33261 whole entry): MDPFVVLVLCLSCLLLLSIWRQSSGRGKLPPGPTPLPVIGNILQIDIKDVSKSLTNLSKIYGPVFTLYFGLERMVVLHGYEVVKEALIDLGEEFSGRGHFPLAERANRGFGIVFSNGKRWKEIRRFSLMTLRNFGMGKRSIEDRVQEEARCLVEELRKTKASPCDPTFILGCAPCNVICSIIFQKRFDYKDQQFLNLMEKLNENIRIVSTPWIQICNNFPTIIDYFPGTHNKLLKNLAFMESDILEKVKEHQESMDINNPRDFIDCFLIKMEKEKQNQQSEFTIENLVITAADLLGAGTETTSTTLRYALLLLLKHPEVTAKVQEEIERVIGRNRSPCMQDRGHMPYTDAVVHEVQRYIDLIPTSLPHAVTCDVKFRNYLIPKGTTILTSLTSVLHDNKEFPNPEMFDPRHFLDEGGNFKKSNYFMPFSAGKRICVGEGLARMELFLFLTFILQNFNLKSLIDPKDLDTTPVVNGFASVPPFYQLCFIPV
Description: as §3

CYP2D6 = CYP2D6 (Homo sapiens (Human), UniProt P10635); test: CYP enzyme inhibition assay; format: in vitro ADME
Chain of CYP2D6 (P10635 whole entry): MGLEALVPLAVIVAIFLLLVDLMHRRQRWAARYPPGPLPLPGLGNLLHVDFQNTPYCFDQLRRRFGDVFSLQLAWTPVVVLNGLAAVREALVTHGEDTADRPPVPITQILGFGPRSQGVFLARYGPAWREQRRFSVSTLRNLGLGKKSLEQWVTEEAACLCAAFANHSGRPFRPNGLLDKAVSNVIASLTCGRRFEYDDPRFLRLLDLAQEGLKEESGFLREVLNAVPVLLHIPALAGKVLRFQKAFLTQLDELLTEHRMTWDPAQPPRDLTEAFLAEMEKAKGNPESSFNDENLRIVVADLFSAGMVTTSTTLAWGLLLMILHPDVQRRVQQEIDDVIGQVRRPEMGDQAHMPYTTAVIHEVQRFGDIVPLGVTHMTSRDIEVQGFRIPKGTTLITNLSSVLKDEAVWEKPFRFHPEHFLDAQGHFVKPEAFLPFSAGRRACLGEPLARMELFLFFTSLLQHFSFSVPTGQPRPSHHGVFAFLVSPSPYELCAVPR
Description: as §3

CYP2C9 = CYP2C9 (Homo sapiens (Human), UniProt P11712); test: CYP enzyme inhibition assay; format: in vitro ADME
Chain of CYP2C9 (P11712 whole entry): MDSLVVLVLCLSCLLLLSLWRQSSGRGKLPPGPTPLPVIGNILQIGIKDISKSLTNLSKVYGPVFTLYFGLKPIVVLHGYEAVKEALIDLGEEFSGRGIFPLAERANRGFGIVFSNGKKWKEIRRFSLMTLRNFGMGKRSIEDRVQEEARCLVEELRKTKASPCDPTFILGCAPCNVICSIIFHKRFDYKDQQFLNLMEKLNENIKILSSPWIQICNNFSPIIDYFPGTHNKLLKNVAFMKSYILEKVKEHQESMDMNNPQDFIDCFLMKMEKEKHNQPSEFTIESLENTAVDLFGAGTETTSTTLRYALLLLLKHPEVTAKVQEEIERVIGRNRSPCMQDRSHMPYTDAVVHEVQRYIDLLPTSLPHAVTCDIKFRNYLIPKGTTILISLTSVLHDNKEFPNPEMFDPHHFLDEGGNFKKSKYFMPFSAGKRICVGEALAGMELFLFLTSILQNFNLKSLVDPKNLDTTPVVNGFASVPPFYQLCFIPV
Description: as §3

PHD2 = PHD2 (Homo sapiens (Human), UniProt Q9GZT9); test: PHD enzyme assay (Eu-VBC TR-fluorescence); format: biochemical
Chain of PHD2 (Q9GZT9 whole entry): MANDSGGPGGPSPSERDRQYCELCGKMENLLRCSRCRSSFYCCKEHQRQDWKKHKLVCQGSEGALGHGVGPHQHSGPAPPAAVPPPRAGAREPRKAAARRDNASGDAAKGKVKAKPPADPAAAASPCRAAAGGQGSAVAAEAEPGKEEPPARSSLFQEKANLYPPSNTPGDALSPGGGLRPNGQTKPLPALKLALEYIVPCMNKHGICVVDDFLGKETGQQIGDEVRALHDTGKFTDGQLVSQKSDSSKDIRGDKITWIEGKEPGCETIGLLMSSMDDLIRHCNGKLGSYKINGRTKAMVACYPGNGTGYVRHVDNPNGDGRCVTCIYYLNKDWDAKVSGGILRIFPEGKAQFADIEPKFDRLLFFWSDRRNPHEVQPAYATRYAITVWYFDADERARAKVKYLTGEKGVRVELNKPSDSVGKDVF
Experimental: as §2, with “A 200 nM HIF-1a 556-574 solution was prepared with washing buffer, and 100 μL of the solution was added to each well, followed by incubation for 60 min.” left out, “PHD solutions were prepared with PHD reaction buffer, and the concentrations of PHD1, 2, and 3 solutions were 10 ng/μL, 5 ng/μL, and 15 ng/μL, respectively. 95 μL of the PHD solution was added to each compound well, followed by the addition of 5 μL of the compound solution, 95 μL of the PHD solution was added to each full active well, followed by the addition of 5 μL of the PHD reaction buffer; and 100 μL of the PHD reaction buffer was added to each blank well.” left out, “A microplate reader was used to read TR-Fluorescence at Ex340 and Em615.” left out

[2] = 2 h, compound at 30 μM, 10 μM and 3 μM

| SMILES | HIF-2α protein expression compared with blank control (HIF-2α) | HIF-1α protein expression compared with blank control (HIF-1α) | EPO OD value (erythropoietin; 10 mg/kg) | EPO OD value (erythropoietin; 50 mg/kg) | Promotion of expression of erythropoietin in vivo (erythropoietin) | EPO-enhancing effect compared with positive control drug FG4592 [1] | IC50 (PHD3) [nM] | IC50 (PHD1) [nM] | IC50 (CYP1A2) [nM] | fold induction at 30 µM (HIF-2α; [2]) | IC50 (hERG channels) [nM] | Inhibitory effect on hERG current at the highest test concentration (hERG channels) | Reticulocytes (RETIC), average (reticulocytes) | IC50 (CYP3A4-M) [nM] | IC50 (CYP2C19) [nM] | IC50 (CYP2D6) [nM] | IC50 (CYP2C9) [nM] | fold induction at 30 µM (HIF-1α; [2]) | also measured |
| --- | --- | --- | --- | --- | --- | --- | --- | --- | --- | --- | --- | --- | --- | --- | --- | --- | --- | --- | --- |
| O=C(O)CNC(=O)c1nc(Cl)c2nc(Oc3ccc(F)cc3)ccc2c1O [Link-130, 2-(2-(4-fluorophenoxy)-5-hydroxy-8-chloro-1,7-naphthyridine-6-formamido) Acetic Acid] | higher than that of the blank control | higher than that of the blank control | C (C represents 2<EPO OD value<3) | D (D represents EPO OD value>3) | significantly promote the expression of erythropoietin | higher than that of the positive control drug FG4592 | – | – | – | – | – | – | – | – | – | – | – | – | HIF-2α level of the compound of the present disclosure/HIF-2α level of blank control (HIF-2α; [2]): B (B represents 4.5 < protein ratio < 8.5); HIF-1α level of the compound of the present disclosure/HIF-1α level of blank control (HIF-1α; [2]): B (B represents 4.5 < protein ratio < 8.5); EPO level of the compound of the present disclosure/EPO level of FG4592 ([1]; 24 h, compound at 100 μM and 10 μM, supernatant ELISA): C (C represents EPO ratio ≥ 1.3) |
| O=C(O)CNC(=O)c1nc(Cl)c2cc(Oc3ccccc3)ccc2c1O [Comparative Example 1, reference compound] | – | – | – | – | – | – | 561 | 273 | – | – | – | – | – | – | – | – | – | – | – |
| O=C(O)CNC(=O)c1nc(Cl)c2nc(Oc3ccccc3Cl)ccc2c1O [Link-124, 2-(2-(2-chlorophenoxy)-5-hydroxy-8-chloro-1,7-naphthyridine-6-formamido) Acetic Acid] | higher than that of the blank control | higher than that of the blank control | D (D represents EPO OD value>3) | D (D represents EPO OD value>3) | significantly promote the expression of erythropoietin | higher than that of the positive control drug FG4592 | – | – | > 50000 | 4.5 to 8.5 | > 30000 | far from the IC50 value | 6.80 | > 50000 | > 50000 | > 50000 | > 50000 | 4.5 to 8.5 | – |
| O=C(O)CNC(=O)c1nc(Br)c2cc(Oc3ccccc3)ccc2c1O [Comparative Example 3, reference compound] | – | – | – | – | – | – | 544 | 452 | – | – | – | – | – | – | – | – | – | – | IC50 (PHD2): 951 nM |
| O=C(O)CNC(=O)c1nc(Br)c2nc(Oc3ccccc3Cl)ccc2c1O [Link-125, 2-(2-(2-chlorophenoxy)-5-hydroxy-8-bromo-1,7-naphthyridine-6-formamido) Acetic Acid] | higher than that of the blank control | higher than that of the blank control | A (A represents 1.0<EPO OD value<1.5) | D (D represents EPO OD value>3) | – | – | – | – | > 50000 | 1 to 4.5 | > 30000 | far from the IC50 value | 5.62 | > 50000 | > 50000 | > 50000 | > 50000 | 4.5 to 8.5 | – |
| O=C(O)CNC(=O)c1ncc2nc(Oc3ccccc3)ccc2c1O [Comparative Example 2, 2-(5-hydroxy-2-phenoxy-1,7-naphthyridine-6-formamido) acetic acid, reference compound] | – | – | – | – | – | – | 492 | 335 | – | – | – | – | – | – | – | – | – | – | – |
